Patent publication US20240262844A1, “PYRIDINIUM SALTS AND METHODS OF USE” (UNIVERSITY OF WYOMING, priority 2023, published 2024)
“And” between values parts separate entries of the source, which are not always exact repeats. Identical values can stand only once. Counter-ions that a name gives are not always drawn.

Columns and labels:
[1] = Fluorescence lifetime and emission measurements; assay type: physicochemical
Method: The emission spectra were generated by excitation of a 10 μM solution of either pyridinium salt 2a or pyridinium salt 2b in H2O. Analyses were performed at 375 nm excitation with an emission slit width of 5 nm and an excitation slit width of 5 nm. The emission wavelength was gathered from 400 nm to 600 nm.
FIGS. 9A-9D show fluorescence decay spectra of pyridinium salts 2a and 2b in selected solvents according to at least one embodiment of the present disclosure. Specifically, FIG. 9A is a fluorescence decay spectrum of pyridinium salt 2a in 1,2-dichloroethane, FIG. 9B is a fluorescence decay spectrum of pyridinium salt 2a in CH3CN, FIG. 9C is a fluorescence decay spectrum of pyridinium salt 2a in H2O, and FIG. 9D is a fluorescence decay spectrum of pyridinium salt 2b in H2O. The fluorescent decay spectra were generated with a 1-10 μM solution of pyridinium salt (10 μM for H2O and 1 μM for other solvents) using a GG420 long pass filter and a 375 nm excitation wavelength. The instrument response factor was measured using a highly diluted solution of LUDOX AS-30 colloidal silica in water and a ND1.0 filter. The concentration of LUDOX and the emission slit width were adjusted until the intensity of the instrument response function (IRF) was similar to the fluorescent decay intensity. The procedure given in the EasyLife X User's Manual was followed.

lysozyme (14.3 kDa) = biological target: T1, lysozyme (14.3 kDa) (Gallus gallus, UniProt P00698); experiment: Photochemical labeling of lysozyme (LC/MS); assay type: biochemical, chicken; conditions: for irradiation time to complete reactivity: lysozyme labeling
T1 construct: Lysozyme (from chicken egg white, >40,000 units/mg of protein); purchased Sigma Aldrich; host or cells: chicken egg white
Method: General Procedure B: Photochemical Irradiation of Peptides and Proteins: To a 2 mL Pyrex LC/MS vial (Thermo model #03-391-39) were sequentially added solutions containing the desired biomolecule, glutathione (GSH), pyridinium salt, and ammonium acetate (NH4OAc). The resulting solution was diluted to a final volume of 500 μL and then sparged using nitrogen for a minimum of 30 minutes prior to irradiation. The actively sparging solution was then placed in an EvoluChem™ PhotoRedOx Box photoreactor that was equipped with a Kessil, PR160 427 nm LED Lamp and was then irradiated (100% lamp intensity) for the designated time at room temperature while maintaining active sparging. The resultant reaction mixture was then analyzed directly by LC/MS. Analysis of labeling outcomes using LC/MS was performed either by extracted ion chromatogram intensities (method A) or by integrating the area under the peaks associated with peptide content (method B). These values were totaled, and estimated percentages were assigned according to relative intensities of peaks or ion counts.
Labeling of Lysozyme with Pyridinium Salt 2a (Lysozyme-2a Conjugate). Labeling of lysozyme (14.3 kDa) with the pyridinium salt 2a was performed by following general procedure B using the following solutions: lysozyme (27 μL, 182 μM, 10 μM final concentration), pyridinium salt 2a (200 μL, 500 μM, 200 μM final concentration), NH4+OAc (100 μL, 100 mM, pH=6.9, 20 mM final concentration), glutathione (15 μL, 10 mM, 300 μM final concentration), and water (158 μL) with a 100% intensity irradiation time of 60 minutes. The reaction mixture was analyzed directly by LC/MS using method A and was estimated to have proceeded in >95% conversion and a 10.9:1 mono:di labeled ratio and 10% glutathionylation of all unlabeled and labeled protein content was observed.
Labeling of Lysozyme with Pyridinium Salt 2b (Lysozyme-2b Conjugate). Labeling of lysozyme (14.3 kDa) with the pyridinium salt 2b was performed by following general procedure B using the following solutions: lysozyme (19 μL, 262 μM, 10 μM final concentration), 2b (181 μL, 554 μM, 200 μM final concentration), NH4OAc (50 μL, 200 mM, pH=6.9, 20 mM final concentration), glutathione (50 μL, 3 mM, 300 μM final concentration), and water (200 μL) with a 100% intensity irradiation time of 10 minutes. The reaction mixture was analyzed directly by LC/MS using method A and was estimated to have proceeded with 83% conversion. Partial oxidation at biotin obfuscated estimation of both oxidation and glutathionylation. Lysozyme-2b conjugate (retention time (Tr)=2.80-5.17 min).
Labeling of Lysozyme with Pyridinium Salt 2c (Lysozyme-2c Conjugate). Labeling of lysozyme (14.3 kDa) with the pyridinium salt 2c was performed by following general procedure B using the following solutions: lysozyme (19 μL, 262 μM, 10 μM final concentration), pyridinium salt 2c(367 μL, 680 μM, 500 μM final concentration), NH4OAc (50 μL, 200 mM, pH=6.9, 20 mM final concentration), glutathione (50 μL, 3 mM, 300 μM final concentration), and water (14 μL) with a 100% intensity irradiation time of 10 minutes. The reaction mixture was analyzed directly by LC/MS using method A and was estimated to have proceeded with 85% conversion and a 3.7:1 mono:di labeled ratio and 10% glutathionylation of all protein content was observed. Lysozyme-2c conjugate (retention time (Tr)=3.11-5.07 min).
Labeling of Lysozyme with Pyridinium Salt 2d (Lysozyme-2d Conjugate). Labeling of lysozyme (14.3 kDa) with the pyridinium salt 2d was performed by following general procedure B using the following solutions: Lysozyme (16.8 μL, 0.297 mM solution in H2O, final concentration […]), pyridinium salt 2d (91.8 μL, 1.09 mM solution in CH3CN/H2O (2:3), final concentration 200 μM), NH4OAc (50 μL, 200 mM in H2O, final concentration 20 mM, pH 6.9), glutathione (15 μL, 10 mMsolution in H2O, final concentration 300 μM), and water (326.4 μL) with a 100% intensity irradiation time of 20 minutes. […]

T1 sequence (P00698 19-147): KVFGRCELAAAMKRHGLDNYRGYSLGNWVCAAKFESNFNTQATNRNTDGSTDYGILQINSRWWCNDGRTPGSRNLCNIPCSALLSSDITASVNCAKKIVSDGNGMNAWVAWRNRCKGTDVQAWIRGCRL

| SMILES | relative fluorescence quantum yield (ΦF1) pyridinium salt 2b: pyridinium salt 2a ([1]; 10 μM in H2O, 375 nm excitation) | fluorescence lifetime τ1 ([1]; water, 375 nm excitation) | fluorescence lifetime τ2 ([1]; water, 375 nm excitation) | irradiation time to complete reactivity (lysozyme (14.3 kDa)) | glutathionylation of all unlabeled and labeled protein content (lysozyme (14.3 kDa); 200 μM pyridinium salt 2d, 300 μM glutathione, 20 minutes irradiation) | fluorescence lifetime τ1 ([1]; 1,2-dichloroethane, 375 nm excitation) [ns] | fluorescence lifetime τ1 ([1]; acetonitrile, 375 nm excitation) [ns] | diffusion distance of the excited state (2a*) ([1]; aqueous systems) [Å] | conversion (lysozyme (14.3 kDa); 10 μM lysozyme, 200 μM pyridinium salt 2a, 300 μM glutathione, 20 mM NH4OAc pH 6.9, 427 nm, 60 minutes) | glutathionylation of all unlabeled and labeled protein content (lysozyme (14.3 kDa); 200 μM pyridinium salt 2a, 300 μM glutathione, 60 minutes irradiation) [%] |
| --- | --- | --- | --- | --- | --- | --- | --- | --- | --- | --- |
| COc1ccc2cc(-c3cc(C)[n+](N(C)C(=O)OCCCCC[C@H]4SC[C@H]5NC(=O)N[C@H]54)c(C)c3)ccc2c1 (stereo in doubt) [Pyridinium salt 2b, 4-(6-methoxynaphthalen-2-yl)-2,6-dimethyl-1-(methyl(((5-((3aR,4R,6aS)-2-oxohexahydro-1H-thieno[3,4-d]imidazol-4-yl)pentyl)oxy)carbonyl)amino)pyridin-1-ium tetrafluoroborate] | 3.3 | 0.5 ns | 2.8 ns | less than 10 min |  |  |  |  |  |  |
| COc1ccc2cc(-c3cc(C)[n+](N(C)C(=O)OCCCCCCN=[N+]=[N-])c(C)c3)ccc2c1 [Pyridinium salt 2d, 1-((((6-azidohexyl)oxy)carbonyl)(methyl)amino)-4-(6-methoxynaphthalen-2-yl)-2,6-dimethylpyridin-1-ium tetrafluoroborate] |  |  |  |  | 3% and 2% |  |  |  |  |  |
| COC(=O)N(C)[n+]1c(C)cc(-c2ccc3cc(OC)ccc3c2)cc1C [Pyridinium salt 2a, 1-((methoxycarbonyl)(methyl)amino)-4-(6-methoxynapthalen-2-yl)-2,6-dimethylpyridin-1-ium tetrafluoroborate] |  | 0.2548 ns and 0.3 ns | 3.399 ns and 3.4 ns | about 60 min |  | 4.1 | 3.3 | ≤ 30 | > 95% and 94% | 10 |
